Laboratory results: publication PMC10673995, “Discovery of a novel cardiac-specific myosin modulator using artificial intelligence-based virtual screening” (Nature Communications, 2023)
pIC50: −log10 of the molar value. Values joined by “and” are separate entries in the source; they are usually repeats but may differ in a detail not shown here. Identical values can stand only once.

Key:
[1] = system: orientation of the RLC-region of myosin in demembranated trabeculae; test: Polarized fluorescence of BSR-cRLC-E in demembranated trabeculae (order parameter <P2>); design: species or system rat (Rattus norvegicus)
Source text: In a subset of trabeculae, we replaced the endogenous myosin regulatory light chain (RLC) with a recombinant cardiac RLC crosslinked to a bifunctional sulforhodamine (BSR) along its E-helix (BSR-cRLC-E)[39],[40]. This allowed us to determine the orientation of the RLC-region of myosin in demembranated trabeculae using polarized fluorescence (Fig. 4b; Supplementary Table 2). […] In contrast, F10 increased <P2> for the E-helix probe, under both relaxing and activating conditions, and abolished the orientation change in the myosin heads associated with Ca^2+-activation of the myofilaments. […] As a step towards elucidating the molecular mechanism behind F10’s stabilizing effect on the myosin head OFF conformation, we measured the affinity of isolated bovine β-cardiac myosin S1 in the presence of various nucleotides and F10 for the myosin S2 tail domain using Microscale Thermophoresis (Fig. S4).
BSR-cRLCs were exchanged into demembranated trabeculae by extraction in CDTA-rigor solution (composition in mmol L^−1: 5 CDTA, 50 KCl, 40 Tris-HCl pH 8.4, 0.1% (v/v) Triton X-100) for 30 min followed by reconstitution with 40 μmol L^−1 BSR-cRLC in relaxing solution (composition in mmol L^−1: 25 Imidazole, 15 Na2Creatine phosphate (Na2CrP), 78.4 KPropionate (KPr), 5.65 Na2ATP, 6.8 MgCl2, 10 K2EGTA, 1 DTT, pH 7.1) for 1 h, replacing ~50% of the endogenous cRLC[40],[64].
Composition of experimental solutions and activation protocols were identical to those described previously for fluorescence polarization experiments. Fluorescence emission from BSR-cRLCs in trabeculae were collected by a 0.25 N.A. objective using an excitation light beam in line with the emission path. […] The fluorescence emission was separated into parallel and perpendicular components by polarizing beam splitters, and its intensity measured by two photomultipliers, allowing determination of the order parameter <P2> that describes the dipole orientations in the trabeculae. […]

[2] = system: phospholipid biosynthesis in mammalian cells; design: method as in PubChem; conditions: ref PubChem; cited from earlier work
[3] = molecular target: bovine cardiac myofibrils (Bos taurus, UniProt Q9BE39); test: mant-ATP chase single nucleotide turnover, cardiac myofibrils;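 also: bovine cardiac myofibrils at 1 mg/mL in PIPES buffer, 20 µM mant-ATP aged 1 min then chased with 20 mM ATP, fluorescence (ex 360, em 450 nm) read every second for 15 min at 25 °C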
Source text: We used systems of increasing complexity ranging from the isolated cardiac myosin motor domains (Fig. 3a) to synthetic thick filaments formed from purified full-length bovine cardiac myosin (Fig. 3b) and bovine cardiac myofibrils as substrates in the chase assays (Fig. 3c). In contrast to the isolated myosin motors, synthetic thick filaments contain two myosin head domains per molecule connected via their coiled-coil tail.
Synthetic thick filaments were freshly prepared by diluting full-length bovine cardiac myosin stock into assay buffer (composition in mmol L^−1: 15 PIPES pH 7, 5 MgCl2, 1 DTT) and incubation on ice for 2 h. Bovine myosin S1 and synthetic thick filament concentrations were adjusted to 0.4 μmol L^−1 with assay buffer and 40 μL aliquoted into individual wells of a black 384-well plate (Greiner). Mant-ATP (JenaBioscience) was added to each well to a final concentration of 0.4 μmol L^−1 using an automated injector unit in a ClarioStar Plate Reader (BMG LabTech) and the system was allowed to age for 1 min. The chase phase was started by adding a final concentration of 2 mmol L^−1 ATP using a second automated injector unit. Fluorescence intensity from each well was constantly measured for 15 min every 1 sec at 25 °C with the following settings: excitation at 360 nm with a 20 nm bandwidth and emission at 450 nm with a 20 nm bandwidth. For experiments with cardiac myofibrils the concentration was adjusted to 1 mg m L^−1, and the mant-ATP and ATP concentrations were increased to 20 μmol L^−1 and 20 mmol L^−1, respectively.

[4] = molecular target: bovine cardiac myofibrils (CMF) (Bos taurus, UniProt Q9BE39); test: Bovine cardiac myofibrillar ATPase dose-response (F10 and derivatives)
Protocol: Steady-state myofibrillar ATPase activity was measured using an identical protocol as described above but in myofibril assay buffer (composition in mmol L^−1: 20 MOPS pH 7, 50 KCl, 0.1 CaCl2, 1 DTT) with a final bovine CMF concentration of 1 mg mL^−1.

[5] = Cardiac myofibrils, individual replicates

Chain of bovine cardiac myofibrils (Q9BE39 whole entry): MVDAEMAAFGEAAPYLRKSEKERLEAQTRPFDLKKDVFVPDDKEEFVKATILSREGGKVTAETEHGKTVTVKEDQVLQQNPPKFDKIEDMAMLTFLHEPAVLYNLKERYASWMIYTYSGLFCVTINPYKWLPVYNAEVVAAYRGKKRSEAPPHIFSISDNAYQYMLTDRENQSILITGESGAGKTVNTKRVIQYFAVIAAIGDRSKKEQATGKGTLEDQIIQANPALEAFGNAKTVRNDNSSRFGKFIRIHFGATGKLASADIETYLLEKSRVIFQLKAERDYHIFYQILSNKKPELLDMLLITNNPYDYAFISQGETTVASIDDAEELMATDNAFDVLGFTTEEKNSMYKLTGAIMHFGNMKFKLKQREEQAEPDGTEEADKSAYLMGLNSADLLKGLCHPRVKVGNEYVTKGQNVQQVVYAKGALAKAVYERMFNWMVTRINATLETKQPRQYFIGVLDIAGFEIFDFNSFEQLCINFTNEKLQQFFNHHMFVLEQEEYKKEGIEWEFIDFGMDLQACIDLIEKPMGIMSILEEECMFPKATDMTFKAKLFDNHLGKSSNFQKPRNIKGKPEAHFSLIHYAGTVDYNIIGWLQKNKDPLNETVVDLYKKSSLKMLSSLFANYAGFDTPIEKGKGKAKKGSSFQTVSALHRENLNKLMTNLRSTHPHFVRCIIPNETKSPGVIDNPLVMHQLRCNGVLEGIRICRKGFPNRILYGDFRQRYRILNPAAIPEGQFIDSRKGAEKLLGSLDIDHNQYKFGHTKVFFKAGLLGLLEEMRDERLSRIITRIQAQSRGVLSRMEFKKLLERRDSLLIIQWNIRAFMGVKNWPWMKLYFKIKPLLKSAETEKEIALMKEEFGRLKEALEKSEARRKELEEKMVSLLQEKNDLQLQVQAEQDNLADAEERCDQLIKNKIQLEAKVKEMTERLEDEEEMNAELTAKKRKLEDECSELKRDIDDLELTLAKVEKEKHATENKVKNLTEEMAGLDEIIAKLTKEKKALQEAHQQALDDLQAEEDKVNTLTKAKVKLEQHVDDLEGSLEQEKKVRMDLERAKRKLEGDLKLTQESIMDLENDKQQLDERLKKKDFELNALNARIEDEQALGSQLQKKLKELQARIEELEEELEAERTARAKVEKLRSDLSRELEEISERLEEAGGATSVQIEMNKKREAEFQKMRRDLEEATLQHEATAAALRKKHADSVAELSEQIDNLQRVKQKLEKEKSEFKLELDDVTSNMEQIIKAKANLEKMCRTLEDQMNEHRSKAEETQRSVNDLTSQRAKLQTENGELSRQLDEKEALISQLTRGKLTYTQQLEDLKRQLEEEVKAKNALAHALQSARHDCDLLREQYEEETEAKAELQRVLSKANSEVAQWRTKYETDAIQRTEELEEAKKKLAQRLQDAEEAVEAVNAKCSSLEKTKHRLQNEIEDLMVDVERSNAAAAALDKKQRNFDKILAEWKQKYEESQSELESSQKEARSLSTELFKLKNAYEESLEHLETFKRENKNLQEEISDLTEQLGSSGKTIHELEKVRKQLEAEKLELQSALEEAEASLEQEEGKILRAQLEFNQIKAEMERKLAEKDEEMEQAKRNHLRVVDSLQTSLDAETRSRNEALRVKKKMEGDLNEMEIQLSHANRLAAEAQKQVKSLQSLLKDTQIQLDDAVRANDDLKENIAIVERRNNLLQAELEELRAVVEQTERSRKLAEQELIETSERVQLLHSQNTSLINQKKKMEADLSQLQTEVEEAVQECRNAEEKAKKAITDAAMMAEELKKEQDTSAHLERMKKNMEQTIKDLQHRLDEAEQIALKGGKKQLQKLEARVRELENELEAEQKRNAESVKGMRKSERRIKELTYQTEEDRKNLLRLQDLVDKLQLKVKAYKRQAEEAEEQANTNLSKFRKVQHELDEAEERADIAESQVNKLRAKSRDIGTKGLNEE
Chain of bovine cardiac myofibrils (P85100 whole entry partner): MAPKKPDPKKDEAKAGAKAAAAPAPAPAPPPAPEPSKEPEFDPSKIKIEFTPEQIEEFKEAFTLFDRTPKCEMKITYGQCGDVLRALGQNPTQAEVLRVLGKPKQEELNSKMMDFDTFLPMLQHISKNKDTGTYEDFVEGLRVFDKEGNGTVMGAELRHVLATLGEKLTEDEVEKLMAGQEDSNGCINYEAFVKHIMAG
Chain of bovine cardiac myofibrils (Q3SZE5 whole entry partner): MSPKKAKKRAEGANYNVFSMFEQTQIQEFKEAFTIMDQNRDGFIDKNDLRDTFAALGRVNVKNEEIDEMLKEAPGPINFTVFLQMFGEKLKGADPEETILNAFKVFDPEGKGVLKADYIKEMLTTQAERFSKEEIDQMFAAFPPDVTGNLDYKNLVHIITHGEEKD
Chain of bovine cardiac myofibrils (CMF) (Q9BE39 whole entry): as the sequence (Q9BE39 whole entry) above
Chain of bovine cardiac myofibrils (CMF) (P85100 whole entry partner): as the sequence (P85100 whole entry partner) above
Chain of bovine cardiac myofibrils (CMF) (Q3SZE5 whole entry partner): as the sequence (Q3SZE5 whole entry partner) above

CCc1cc2c(=O)n(NC(=S)NC(C)C)cnc2s1 [F10]
order parameter <P2>max ([1]; full Ca^2+ activation pCa 4.5, 20 μmol L^−1 F10, control 0.078 ± 0.008): 0.160 and 0.235 and 0.225 | <P2>max ([1]; individual replicates): 0.160 and 0.235 and 0.225 | <P2>min ([1]; individual replicates): 0.178 and 0.208 and 0.194 | biological activity in primary screen [2]: without, however, any biological activity | effect on the rate of the fast phase [3]: no effect | kfast ([3]; 2 μmol L^−1 Mavacamten or 20 μmol L^−1 F10, control 0.0719 ± 0.0193): 0.0552 ± 0.0106 s⁻¹ | kfast [3, 5]: 0.02031 s⁻¹ and 0.02851 s⁻¹ and 0.03852 s⁻¹ and 0.09761 s⁻¹ and 0.08409 s⁻¹ and 0.06218 s⁻¹ | kslow [3, 5]: 0.003333 s⁻¹ and 0.002949 s⁻¹ and 0.001064 s⁻¹ and 0.001853 s⁻¹ and 0.00204 s⁻¹ and 0.001557 s⁻¹ | slow phase [3, 5]: 72.63% and 66.55% and 67.45% and 65.69% and 56.45% and 78.18% | Bar graph ([3]; Figure 3c, individual replicates): 72.63 and 66.55 and 67.45 and 65.69 and 56.45 and 78.18 | Representative Traces ([3]; t [s] = 6): 0.8687 | Representative Traces ([3]; t [s] = 7): 0.7649 | Representative Traces ([3]; t [s] = 8): 0.847 | Representative Traces ([3]; t [s] = 9): 0.7441 | Representative Traces ([3]; t [s] = 10): 0.7291 | Representative Traces ([3]; t [s] = 11): 0.7606 | Representative Traces ([3]; t [s] = 12): 0.6903 | Representative Traces ([3]; t [s] = 13): 0.6968 | Representative Traces ([3]; t [s] = 14): 0.7384 | Representative Traces ([3]; t [s] = 96): 0.4594 | Representative Traces ([3]; t [s] = 97): 0.4902 | Representative Traces ([3]; t [s] = 98): 0.4564 | Representative Traces ([3]; t [s] = 99): 0.5227 | Representative Traces ([3]; t [s] = 100): 0.5227 | Representative Traces ([3]; t [s] = 101): 0.4329 | Representative Traces ([3]; t [s] = 102): 0.4816 | Representative Traces ([3]; t [s] = 103): 0.4496 | Representative Traces ([3]; t [s] = 104): 0.4983 | Representative Traces ([3]; t [s] = 105): 0.4303 | Representative Traces ([3]; t [s] = 106): 0.4469 | Representative Traces ([3]; t [s] = 107): 0.4441 | Representative Traces ([3]; t [s] = 108): 0.454 | Representative Traces ([3]; t [s] = 109): 0.4003 | Representative Traces ([3]; t [s] = 110): 0.4314 | Representative Traces ([3]; t [s] = 111): 0.4793 | Representative Traces ([3]; t [s] = 112): 0.4152 | Representative Traces ([3]; t [s] = 113): 0.4525 | Representative Traces ([3]; t [s] = 114): 0.4165 | Representative Traces ([3]; t [s] = 115): 0.4344 | Representative Traces ([3]; t [s] = 116): 0.416 | Representative Traces ([3]; t [s] = 117): 0.4849 | Representative Traces ([3]; t [s] = 118): 0.4794 | Representative Traces ([3]; t [s] = 119): 0.4668 | Representative Traces ([3]; t [s] = 120): 0.4665 | Representative Traces ([3]; t [s] = 121): 0.4689 | Representative Traces ([3]; t [s] = 122): 0.4838 | Representative Traces ([3]; t [s] = 123): 0.4652 | Representative Traces ([3]; t [s] = 124): 0.4182 | Representative Traces ([3]; t [s] = 125): 0.3966 | Representative Traces ([3]; t [s] = 126): 0.4538 | Representative Traces ([3]; t [s] = 127): 0.4517 | Representative Traces ([3]; t [s] = 128): 0.4361 | Representative Traces ([3]; t [s] = 129): 0.4908 | Representative Traces ([3]; t [s] = 130): 0.4396 | Representative Traces ([3]; t [s] = 131): 0.3944 | Representative Traces ([3]; t [s] = 132): 0.397 | Representative Traces ([3]; t [s] = 133): 0.4059 | Representative Traces ([3]; t [s] = 134): 0.4164 | Representative Traces ([3]; t [s] = 135): 0.475 | Representative Traces ([3]; t [s] = 136): 0.486 | Representative Traces ([3]; t [s] = 137): 0.4478 | Representative Traces ([3]; t [s] = 138): 0.507 | Representative Traces ([3]; t [s] = 139): 0.3865 | Representative Traces ([3]; t [s] = 140): 0.4564 | Representative Traces ([3]; t [s] = 141): 0.4199 | Representative Traces ([3]; t [s] = 142): 0.4501 | Representative Traces ([3]; t [s] = 143): 0.4218 | Representative Traces ([3]; t [s] = 144): 0.4033 | Representative Traces ([3]; t [s] = 145): 0.441 | Representative Traces ([3]; t [s] = 146): 0.3827 | Representative Traces ([3]; t [s] = 147): 0.3962 | Representative Traces ([3]; t [s] = 148): 0.4486 | Representative Traces ([3]; t [s] = 149): 0.4251 | Representative Traces ([3]; t [s] = 150): 0.3547 | Representative Traces ([3]; t [s] = 151): 0.4491 | Representative Traces ([3]; t [s] = 152): 0.3776 | Representative Traces ([3]; t [s] = 153): 0.3808 | Representative Traces ([3]; t [s] = 154): 0.3286 | Representative Traces ([3]; t [s] = 155): 0.4639 | Representative Traces ([3]; t [s] = 156): 0.435 | Representative Traces ([3]; t [s] = 157): 0.3725 | Representative Traces ([3]; t [s] = 158): 0.3522 | Representative Traces ([3]; t [s] = 159): 0.4127 | Representative Traces ([3]; t [s] = 160): 0.3983 | Representative Traces ([3]; t [s] = 161): 0.3945 | Representative Traces ([3]; t [s] = 162): 0.3807 | Representative Traces ([3]; t [s] = 163): 0.4372 | Representative Traces ([3]; t [s] = 164): 0.4557 | Representative Traces ([3]; t [s] = 165): 0.4341 | Representative Traces ([3]; t [s] = 166): 0.3757 | Representative Traces ([3]; t [s] = 167): 0.3677 | Representative Traces ([3]; t [s] = 168): 0.4335 | Representative Traces ([3]; t [s] = 169): 0.3827 | Representative Traces ([3]; t [s] = 170): 0.3934 | Representative Traces ([3]; t [s] = 171): 0.3476 | Representative Traces ([3]; t [s] = 172): 0.3794 | Representative Traces ([3]; t [s] = 173): 0.3525 | Representative Traces ([3]; t [s] = 174): 0.3963 | Representative Traces ([3]; t [s] = 175): 0.3642 | Representative Traces ([3]; t [s] = 176): 0.3906 | Representative Traces ([3]; t [s] = 177): 0.3677 | Representative Traces ([3]; t [s] = 178): 0.392 | Representative Traces ([3]; t [s] = 179): 0.4104 | Representative Traces ([3]; t [s] = 180): 0.4065 | Representative Traces ([3]; t [s] = 181): 0.4021 | Representative Traces ([3]; t [s] = 182): 0.3788 | Representative Traces ([3]; t [s] = 183): 0.3953 | Representative Traces ([3]; t [s] = 184): 0.397 | Representative Traces ([3]; t [s] = 185): 0.4128 | Representative Traces ([3]; t [s] = 186): 0.3872 | pIC50 [4]: ~4.62 | maximal inhibition of bovine CMF ATPase activity ([4]; suboptimal Ca^2+-activation, about 70% maximal activation): about 60%
